Experimental data published in BindingDB's records for patent US11518779 (Victoria Link, 2022).

Target: DNA (cytosine-5)-methyltransferase 1 (Homo sapiens, UniProt P26358)
Test: DNMT1 Inhibition Assay
Experimental: The DNMT1 assays were carried to determine the IC50 with transition state analogs. The reaction (100 μL) containing 50 mM Tris-HCl pH 8.0, 100 mM KCl, 50 ug/mL BSA, 2 mM DTT, 1 μM freshly prepared [Me-3H]-SAM, 1 μM 26 bp hemimethylated DNA substrate and varying concentrations of each inhibitor ([…]), incubated at 37° C. with 100 nM DNMT1. The reaction fractions (50 μL) were taken at 2 hours. The methylated DNA was purified by using Micro Bio-spin P-30 columns (Bio-Rad). Purified samples were mixed with 10 mL of scintillation liquid (PerkinElmer), and counted for radioactivity in a Tricarb 2910 TR scintillation counter (PerkinElmer). The values obtained in the absence of DNMT1 in the reaction were used as controls. The assay data were analyzed using GraphPad Prism for IC50 calculations.

DNA (cytosine-5)-methyltransferase 1, sequence (P26358 whole entry): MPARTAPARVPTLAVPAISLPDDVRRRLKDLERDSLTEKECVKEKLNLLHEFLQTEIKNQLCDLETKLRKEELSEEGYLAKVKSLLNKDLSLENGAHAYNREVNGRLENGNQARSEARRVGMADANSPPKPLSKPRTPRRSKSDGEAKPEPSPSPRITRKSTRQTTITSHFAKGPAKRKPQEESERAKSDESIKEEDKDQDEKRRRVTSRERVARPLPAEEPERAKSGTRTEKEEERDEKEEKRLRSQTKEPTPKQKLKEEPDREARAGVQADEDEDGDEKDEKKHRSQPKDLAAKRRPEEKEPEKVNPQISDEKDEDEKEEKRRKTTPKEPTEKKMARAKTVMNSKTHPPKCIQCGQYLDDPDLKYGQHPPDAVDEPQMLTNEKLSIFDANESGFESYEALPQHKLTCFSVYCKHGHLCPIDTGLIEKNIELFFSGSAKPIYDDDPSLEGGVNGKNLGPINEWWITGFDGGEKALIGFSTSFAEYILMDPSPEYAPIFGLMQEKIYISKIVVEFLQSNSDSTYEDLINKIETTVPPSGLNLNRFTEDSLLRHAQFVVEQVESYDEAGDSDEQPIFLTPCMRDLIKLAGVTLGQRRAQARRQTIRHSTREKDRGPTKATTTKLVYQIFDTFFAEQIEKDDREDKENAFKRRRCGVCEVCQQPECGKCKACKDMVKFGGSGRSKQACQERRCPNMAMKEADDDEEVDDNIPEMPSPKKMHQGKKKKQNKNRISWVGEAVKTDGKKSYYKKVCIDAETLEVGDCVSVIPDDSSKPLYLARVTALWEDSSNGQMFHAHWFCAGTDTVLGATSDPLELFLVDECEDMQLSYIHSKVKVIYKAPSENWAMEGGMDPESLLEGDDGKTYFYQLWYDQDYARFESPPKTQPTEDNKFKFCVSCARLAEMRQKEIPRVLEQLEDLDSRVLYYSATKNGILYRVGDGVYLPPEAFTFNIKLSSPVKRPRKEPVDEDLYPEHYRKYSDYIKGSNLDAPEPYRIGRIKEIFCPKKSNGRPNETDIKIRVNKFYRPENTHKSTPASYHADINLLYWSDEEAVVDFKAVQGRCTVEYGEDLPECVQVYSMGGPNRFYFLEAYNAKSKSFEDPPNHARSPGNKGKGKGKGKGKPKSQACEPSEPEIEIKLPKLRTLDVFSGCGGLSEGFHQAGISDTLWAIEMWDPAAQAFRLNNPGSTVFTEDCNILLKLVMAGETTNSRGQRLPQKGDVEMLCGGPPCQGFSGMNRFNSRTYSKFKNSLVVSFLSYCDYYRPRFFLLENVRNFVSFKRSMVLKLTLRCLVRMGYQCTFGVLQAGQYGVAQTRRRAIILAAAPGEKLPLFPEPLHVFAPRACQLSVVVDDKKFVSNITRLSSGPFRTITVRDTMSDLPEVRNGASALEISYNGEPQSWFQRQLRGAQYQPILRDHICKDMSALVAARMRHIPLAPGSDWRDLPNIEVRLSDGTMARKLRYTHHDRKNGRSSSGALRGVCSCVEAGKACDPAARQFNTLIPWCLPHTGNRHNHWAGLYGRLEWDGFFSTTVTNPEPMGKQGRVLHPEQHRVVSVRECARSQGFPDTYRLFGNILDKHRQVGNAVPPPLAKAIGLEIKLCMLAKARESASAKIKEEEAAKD

Row | SMILES | IC50 [nM]
1 | Nc1nc(=O)n([C@H]2C[C@H](O)[C@@H](CO)O2)cc1CSCCC[C@H]1O[C@@H](n2cnc3c(N)ncnc32)[C@H](O)[C@@H]1O [US11518779, Compound 21] | 3600
2 | Nc1nc(=O)n([C@H]2C[C@H](O)[C@@H](CO)O2)cc1CNC[C@H]1O[C@@H](n2cnc3c(N)ncnc32)[C@H](O)[C@@H]1O [US11518779, Compound 10] | 1100
